Tests used:
[1] = system: untransformed fibroblasts (HSF1); test: Clonogenic assay comparing the radioprotective effect of phosphorylated amino acids, 4 Gy; type: cell-based, human; details: 10 μM for 16 hours, then 4 Gy ionizing irradiation, FIG. 3
[2] = Inventors' investigations of the concentration range of the cytoprotective effect; type: cell-based; details: investigations carried out by the inventors
Experimental: In the culture medium according to the invention it is preferred to use phosphotyrosine in a concentration range of from 1 to 100 μM. Thus, investigations carried out by the inventors have shown that the cytoprotective effect of the phosphotyrosine is particularly high in this range.

[3] = system: transformed HH4dd fibroblasts; test: Clonogenic assay after P-Tyr pretreatment and ionizing irradiation at 4 Gy, different P-Tyr doses; type: cell-based, human; details: FIG. 2B
Experimental: (§1) For the radioactive irradiation, the cells are irradiated with 4 MV photons using a “Linac” (Mevatron^60/Siemens, Erlangen, Germany) using a dose rate of 2 Gy/min at room temperature, as described (Dittmann et al. “Bowman-Birk Proteinase inhibitor modulates radiosensitivity and radiation-induced differentiation of human fibroblasts in culture”, Radiother. Oncol. 34, pages 137-143, 1995).
(§2) The cells, which are cultured as described in Example 1 and which are either incubated with the cell-damaging factors as described in Example 2 or remain untreated as controls, are freed from medium, washed and detached from the substrate using 0.05% trypsin and 0.1% EDTA. For the purpose of analyzing colony formation, the detached cells are plated at a constant cell density of 1500 cells per 78 cm^2 dish. […]
(§3) In this connection, a colony is a mass of cells which develops, during the 14 days of culture, from a single cell as a result of consecutive cell divisions. […] If many cells die during the treatment with the cell-damaging factors, only a few colonies are then formed after 14 days; if many cells survive, many colonies can then be counted after the 14 days of culture. […]
(§4) After the 14 days of culture, the cells are fixed, stained and counted as described (Dittmann et al., 1995, loc. cit.). When determining clonogenic survival, the colonies containing more than 50 cells are counted per plate. […]

[4] = system: normal skin fibroblasts (HSF6); test: Clonogenic assay after P-Tyr pretreatment alone, no cell-damaging treatment; type: cell-based, human; details: P-Tyr alone for 16 hours at up to 2000 μM, FIG. 2A
Experimental: Human fibroblasts (cell strains HSF1 and HSF6, which are derived from human skin, passages 9 to 15; CCD32, which is derived from embryonic lung tissue, passages 9 to 11) are particularly well suited for investigating the cytoprotective properties of the phosphotyrosine.
The cells are cultured in Dulbecco's modified Eagle's medium (DMEM) supplemented with 10% fetal calf serum (FCS) (GIBCO/BRL, Eggenstein, Germany, article No. 40G7285K) (=normal medium), under standard conditions. […]
as §3, §4
(§5) The result of such a clonogenic assay is expressed as “relative cytoprotection” or in “% number of the clones”, with the number of the colonies formed in the different assays being related to each other. […]

[5] = system: normal skin fibroblasts (HSF6); test: Clonogenic assay after P-Tyr pretreatment and ionizing irradiation at 4 Gy, different P-Tyr doses; type: cell-based, human; details: FIG. 2B
Experimental: as §1, §2, §3, §4

[6] = system: transformed fibroblast cell line HH4dd; test: Clonogenic assay after P-Tyr pretreatment alone, no cell-damaging treatment; type: cell-based, human; details: FIG. 2A
From the text: Transformed human fibroblasts, e.g., the cell line HH4dd (is derived from human skin, passages 65 to 70), are also suitable for the investigation. This cell line is derived from the normal cell strain HH4 and is likewise characterized by a p53 mutation (Dittmann et al., “The radioprotective effect of BBI is associated with the activation of DNA-repair relevant genes”, Int. J. Radiat. Biol. 74, pages 225-230, 1998). HH4dd grows in soft agar, is characterized by its aneuploidy and induces tumors in nude mice. […]
as §3, §4, §5

[7] = system: normal skin fibroblasts (HSF6); test: Clonogenic assay after P-Tyr pretreatment and ionizing irradiation at 0 to 6 Gy; type: cell-based, human; details: 10 μM P-Tyr for 16 hours, up to 6 Gy, FIG. 4
Experimental: as §1, §2, §3, §4

[8] = system: normal lung fibroblasts (CCD32); test: as above; type: cell-based, human; details: 10 μM P-Tyr for 16 hours, up to 6 Gy, FIG. 4
Experimental: as §1, §2, §3, §4

[9] = system: HTB-35 squamous carcinoma cell line; test: as above; type: cell-based, human; details: 10 μM P-Tyr for 16 hours, FIG. 4
From the text: (§6) In addition, it is possible to use the human squamous carcinoma cell lines HTB-35 (ATCC, which is derived from a cervical carcinoma, passage unknown, used in passage 10 after receipt) (Srivastava et al., “The status of the p53 gene in human papilloma virus positive or negative cervical carcinoma cell lines”, Carcinogenesis 13, pages 1273-1275, 1992) and HTB-43 (ATCC, is derived from a hypopharyngeal tumor, passage 124). Both carcinoma cell lines are characterized by a point mutation in the p53 gene (Kim et al., “State of p53, Rb and DCC tumor suppressor genes in human oral cancer cell lines”, Anticancer Research, pages 1405-1413, 1993). […]
as §3, §4

[10] = system: HTB-43 squamous carcinoma cell line; test: as above; type: cell-based, human; details: 10 μM P-Tyr for 16 hours, FIG. 4
From the text: as §6, §3, §4

[11] = system: liver carcinoma cell line and arc-transformed NIH 3T3 cells; details: Mishra and Hamburger, Cancer Letters 1996; cited from earlier work
[12] = system: transformed fibroblasts (HH4dd); test: Clonogenic assay after P-Tyr pretreatment and UVB irradiation; type: cell-based, human; details: 10 μM P-Tyr for 16 hours, then 200 J of UVB, FIG. 5B
Experimental: (§7) The cells are irradiated with UV light (312 nm) at a dose rate of 450 J/m^2 per minute using a UVB lamp (Bioblock Scientific, Illkirch Cedex, France).
(§8) The cells, which are cultured as described in Example 1 and which are either incubated with the cell-damaging factors as described in Example 2 or remain untreated as controls, are freed from medium, washed and detached from the substrate using 0.05% trypsin and 0.1% EDTA. For the purpose of analyzing colony formation, the detached cells are plated at a constant cell density of 1500 cells per 78 cm^2 dish. The plated cells were then incubated for 14 days in normal medium additionally containing 20% FCS. This period of time enabled colony formation to take place.
as §3, with “divisions. This colony is also termed a clone.” for “divisions.”
as §4

[13] = system: normal, untransformed fibroblasts (HSF1); test: as above; type: cell-based, human; details: 10 μM P-Tyr for 16 hours, then 200 J of UVB, assayed 7 hours later, FIG. 5A
Experimental: as §7, §8
as §3, with “divisions. This colony is also termed a clone.” for “divisions.”
as §4

[14] = system: transformed fibroblasts (HH4dd); test: Clonogenic assay after P-Tyr pretreatment and cisplatin treatment; type: cell-based, human; details: 10 μM P-Tyr for 16 hours, then 1 μg of cisplatin/ml for one hour, FIG. 6B
Experimental: (§9) The incubation with cisplatin take place at a concentration of 1 μg of cisplatin/ml (cis-diammine platinum(II-dichloride); Sigma, Munich, Germany).
as §8
as §3, with “divisions. This colony is also termed a clone.” for “divisions.”
as §4

[15] = system: normal, untransformed fibroblasts (HSF1); test: as above; type: cell-based, human; details: 10 μM P-Tyr for 16 hours, then 1 μg of cisplatin/ml for one hour, versus cells not pretreated, FIG. 6A
Experimental: as §9, §8
as §3, with “divisions. This colony is also termed a clone.” for “divisions.”
as §4

[16] = system: human breast and kidney carcinoma cells; details: Mishra and Hamburger 1993; P-Tyr dose-dependent; run at 1.67 mM, some at 16.7 mM; cited from earlier work

SMILES	radioprotection (clonogenic assay) [1]	concentration range in which the cytoprotective effect is particularly high [2]	clonogenic survival after ionizing irradiation ([3]; transformed HH4dd fibroblasts, same treatment)	toxicity of the radiation ([3]; transformed fibroblasts, 2000 pM P-Tyr)	effect on clonogenic survival [4]	P-Tyr concentration at which maximum survival was achieved ([5]; ionizing irradiation at 4 Gy)	clonogenic survival after ionizing irradiation ([5]; phosphotyrosine plus ionizing irradiation at 4 Gy)	effect on clonogenic survival [6]	clonogenic survival after ionizing irradiation [7]	clonogenic survival after ionizing irradiation [8]	clonogenic survival after ionizing irradiation [9]	clonogenic survival after ionizing irradiation [10]	cell growth of liver carcinoma cell line and arc-transformed NIH 3T3 cells [11]	effect on clonogenic survival after UVB irradiation [12]	increase in clonogenic survival after UVB irradiation [13]	clonogenic survival after cisplatin treatment [14]	increase in clonogenic survival after cisplatin incubation [15]	growth of human breast and kidney carcinoma cells [16]
C[C@@H](OP(=O)(O)O)[C@H](N)C(=O)O [P-Thr, phosphothreonine, reference compound]	did not result in any radioprotection	–	–	–	–	–	–	–	–	–	–	–	–	–	–	–	–	–
N[C@@H](Cc1ccc(OP(=O)(O)O)cc1)C(=O)O [P-Tyr, O-phospho-L-tyrosine (L-3-[4-hydroxy-phenyl]alanine-4′-phosphate)]	significant radioprotection	1 to 100 µM	no increase in clonogenic survival was observed	significant increase in the toxicity of the radiation	does not have any effect on the clonogenic survival	10 µM	clear increase in clonogenic survival	no effect was seen on clonogenic survival	significant increase in clonogenic survival	significant increase in clonogenic survival	significant reduction in clonogenic survival	significant reduction in clonogenic survival	inhibit cell growth	no effect on the clonogenic survival	37%	did not lead to any increase in clonogenic survival	38.7%	inhibits the growth

Source: patent US8143223B2, “Cytoprotection by means of phosphotyrosine” (Eberhard-Karls-Universitaet Tuebingen Universitaetsklinikum, priority 2001, dated 2012)
